Active and inactive are the calls of the source.
Columns and labels:
[1] = molecular target: Calcium/calmodulin-dependent protein kinase type II subunit gamma (Homo sapiens, UniProt Q13555); type: functional
[2] = molecular target: Eukaryotic elongation factor 2 kinase (Homo sapiens, UniProt O00418); type: functional
[3] = molecular target: Tyrosine-protein kinase JAK3 (Homo sapiens, UniProt P52333); type: functional
[4] = molecular target: Serine/threonine-protein kinase TAO1 (Homo sapiens, UniProt Q7L7X3); type: functional
[5] = molecular target: Proto-oncogene tyrosine-protein kinase ROS (Homo sapiens, UniProt P08922); type: functional;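 also: ROS1 tested as one member of a kinome-wide kinase panel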
[6] = molecular target: Tyrosine-protein kinase Blk (Homo sapiens, UniProt P51451); type: functional;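 also: obtained as one member of a kinome-wide kinase assay panel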
[7] = molecular target: Mitogen-activated protein kinase kinase kinase kinase 2 (Homo sapiens, UniProt Q12851); type: functional;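 also: measured as one member of a kinome-wide kinase panel, with MAP4K2 as the panel entry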
Chain of Mitogen-activated protein kinase kinase kinase kinase 2 (Q12851 whole entry): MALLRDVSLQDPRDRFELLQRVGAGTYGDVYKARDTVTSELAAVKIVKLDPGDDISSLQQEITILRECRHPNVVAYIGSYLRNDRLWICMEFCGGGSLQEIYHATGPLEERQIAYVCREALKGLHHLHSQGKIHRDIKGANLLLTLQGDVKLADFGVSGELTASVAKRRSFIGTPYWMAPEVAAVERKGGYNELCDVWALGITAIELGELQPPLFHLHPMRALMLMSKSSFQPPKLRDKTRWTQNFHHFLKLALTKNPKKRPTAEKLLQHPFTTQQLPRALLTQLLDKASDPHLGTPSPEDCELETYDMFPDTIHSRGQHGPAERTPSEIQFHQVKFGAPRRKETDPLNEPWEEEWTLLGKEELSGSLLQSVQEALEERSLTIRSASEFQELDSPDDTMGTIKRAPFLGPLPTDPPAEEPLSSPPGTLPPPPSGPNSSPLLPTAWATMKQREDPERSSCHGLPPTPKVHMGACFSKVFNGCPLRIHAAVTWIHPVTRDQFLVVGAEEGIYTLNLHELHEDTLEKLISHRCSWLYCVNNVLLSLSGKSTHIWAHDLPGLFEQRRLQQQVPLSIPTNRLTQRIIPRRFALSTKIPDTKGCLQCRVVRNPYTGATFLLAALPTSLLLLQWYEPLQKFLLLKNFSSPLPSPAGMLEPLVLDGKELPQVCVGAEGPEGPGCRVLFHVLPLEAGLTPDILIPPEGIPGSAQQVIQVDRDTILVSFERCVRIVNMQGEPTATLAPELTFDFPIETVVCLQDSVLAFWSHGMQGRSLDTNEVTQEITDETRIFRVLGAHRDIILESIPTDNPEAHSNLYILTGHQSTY

[8] = molecular target: Hepatocyte growth factor receptor (Homo sapiens, UniProt P08581); type: functional;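 also: kinase panel profiling across the kinome, with MET as the panel member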
Chain of Hepatocyte growth factor receptor (P08581 whole entry): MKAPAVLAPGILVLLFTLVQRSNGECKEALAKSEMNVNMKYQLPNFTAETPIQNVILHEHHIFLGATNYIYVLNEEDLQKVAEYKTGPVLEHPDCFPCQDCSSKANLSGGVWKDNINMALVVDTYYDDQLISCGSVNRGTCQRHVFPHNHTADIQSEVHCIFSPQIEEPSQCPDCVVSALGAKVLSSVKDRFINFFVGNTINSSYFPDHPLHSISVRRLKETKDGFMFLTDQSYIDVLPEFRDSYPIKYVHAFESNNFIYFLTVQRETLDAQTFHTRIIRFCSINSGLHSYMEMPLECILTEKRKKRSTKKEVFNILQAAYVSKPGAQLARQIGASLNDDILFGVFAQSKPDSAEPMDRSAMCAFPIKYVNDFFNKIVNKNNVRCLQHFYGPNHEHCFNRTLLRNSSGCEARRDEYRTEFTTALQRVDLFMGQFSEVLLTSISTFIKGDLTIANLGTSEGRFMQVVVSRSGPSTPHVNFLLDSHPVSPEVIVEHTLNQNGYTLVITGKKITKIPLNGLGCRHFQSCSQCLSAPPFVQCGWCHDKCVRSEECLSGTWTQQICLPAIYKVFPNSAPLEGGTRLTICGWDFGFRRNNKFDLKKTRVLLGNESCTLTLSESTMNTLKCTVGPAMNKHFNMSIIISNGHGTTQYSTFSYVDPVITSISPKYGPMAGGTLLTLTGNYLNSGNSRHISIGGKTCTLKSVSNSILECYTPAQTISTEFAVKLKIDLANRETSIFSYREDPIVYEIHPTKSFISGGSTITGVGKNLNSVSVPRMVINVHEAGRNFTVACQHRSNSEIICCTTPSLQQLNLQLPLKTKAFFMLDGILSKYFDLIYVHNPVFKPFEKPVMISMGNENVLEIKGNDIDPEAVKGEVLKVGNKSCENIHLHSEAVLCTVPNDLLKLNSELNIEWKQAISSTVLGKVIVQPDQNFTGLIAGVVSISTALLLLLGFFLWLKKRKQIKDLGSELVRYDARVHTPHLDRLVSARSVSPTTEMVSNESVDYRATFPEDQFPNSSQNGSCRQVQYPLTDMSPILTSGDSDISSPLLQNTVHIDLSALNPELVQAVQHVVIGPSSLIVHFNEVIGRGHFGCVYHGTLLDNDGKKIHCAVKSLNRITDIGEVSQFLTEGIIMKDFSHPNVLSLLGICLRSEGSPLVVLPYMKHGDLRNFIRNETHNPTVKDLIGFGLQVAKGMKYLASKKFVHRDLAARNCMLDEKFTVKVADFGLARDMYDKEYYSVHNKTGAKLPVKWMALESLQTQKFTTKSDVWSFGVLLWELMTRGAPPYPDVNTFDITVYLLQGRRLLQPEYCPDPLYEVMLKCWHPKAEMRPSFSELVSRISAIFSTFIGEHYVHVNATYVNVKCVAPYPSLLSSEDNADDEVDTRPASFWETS

[9] = molecular target: Serine/threonine-protein kinase Chk1 (Homo sapiens, UniProt O14757); type: functional;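 also: measured as one member of a kinome-wide kinase profiling panel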
Chain of Serine/threonine-protein kinase Chk1 (O14757 whole entry): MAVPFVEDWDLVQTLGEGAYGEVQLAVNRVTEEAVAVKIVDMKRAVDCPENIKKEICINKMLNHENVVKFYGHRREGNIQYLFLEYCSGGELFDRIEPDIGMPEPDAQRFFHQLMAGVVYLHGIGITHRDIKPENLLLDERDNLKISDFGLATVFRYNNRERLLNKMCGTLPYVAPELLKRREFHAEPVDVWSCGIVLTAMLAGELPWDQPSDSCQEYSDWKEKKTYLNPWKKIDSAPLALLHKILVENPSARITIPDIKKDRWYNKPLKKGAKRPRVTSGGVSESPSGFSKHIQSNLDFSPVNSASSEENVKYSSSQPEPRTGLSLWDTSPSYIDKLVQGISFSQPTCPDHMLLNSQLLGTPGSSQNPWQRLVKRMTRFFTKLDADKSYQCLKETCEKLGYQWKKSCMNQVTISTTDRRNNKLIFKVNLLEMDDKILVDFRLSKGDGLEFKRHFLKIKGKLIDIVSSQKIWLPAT

[10] = molecular target: Dual specificity tyrosine-phosphorylation-regulated kinase 4 (Homo sapiens, UniProt Q9NR20); type: functional
[11] = molecular target: Interleukin-1 receptor-associated kinase 1 (Homo sapiens, UniProt P51617); type: functional;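 also: IRAK1 tested as one member of a kinome panel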
Aurora kinase B = Aurora kinase B (Homo sapiens, UniProt Q96GD4); type: functional
Chain of Aurora kinase B (Q96GD4 whole entry): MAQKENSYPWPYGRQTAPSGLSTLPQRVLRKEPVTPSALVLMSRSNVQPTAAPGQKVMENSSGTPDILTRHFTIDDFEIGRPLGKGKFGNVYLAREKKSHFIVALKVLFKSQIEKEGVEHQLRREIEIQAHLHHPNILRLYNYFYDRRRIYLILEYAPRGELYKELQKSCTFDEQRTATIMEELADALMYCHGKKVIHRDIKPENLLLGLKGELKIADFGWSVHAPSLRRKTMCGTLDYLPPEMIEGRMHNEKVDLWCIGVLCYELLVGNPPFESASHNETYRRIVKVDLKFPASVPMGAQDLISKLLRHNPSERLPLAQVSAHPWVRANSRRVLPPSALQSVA

[12] = molecular target: Interleukin-1 receptor-associated kinase 4 (Homo sapiens, UniProt Q9NWZ3); type: functional
[13] = molecular target: RAC-alpha serine/threonine-protein kinase (Homo sapiens, UniProt P31749); type: functional;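 also: AKT1 affinity measured as one member of a kinome-wide kinase profiling panel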
Chain of RAC-alpha serine/threonine-protein kinase (P31749 whole entry): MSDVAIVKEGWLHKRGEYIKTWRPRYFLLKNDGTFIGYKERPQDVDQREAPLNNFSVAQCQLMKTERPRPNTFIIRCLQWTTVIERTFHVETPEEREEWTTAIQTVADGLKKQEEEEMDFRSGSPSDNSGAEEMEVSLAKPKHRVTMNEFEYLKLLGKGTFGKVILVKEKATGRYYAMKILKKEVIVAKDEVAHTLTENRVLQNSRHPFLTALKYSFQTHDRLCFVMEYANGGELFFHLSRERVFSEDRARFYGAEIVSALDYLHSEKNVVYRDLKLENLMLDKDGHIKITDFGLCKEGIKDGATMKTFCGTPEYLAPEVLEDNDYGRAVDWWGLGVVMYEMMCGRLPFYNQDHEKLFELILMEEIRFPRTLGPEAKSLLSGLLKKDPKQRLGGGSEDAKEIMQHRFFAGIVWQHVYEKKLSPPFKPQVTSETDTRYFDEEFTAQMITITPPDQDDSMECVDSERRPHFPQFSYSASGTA

[14] = molecular target: Calcium/calmodulin-dependent protein kinase type 1 (Homo sapiens, UniProt Q14012); type: functional
Chain of Calcium/calmodulin-dependent protein kinase type 1 (Q14012 whole entry): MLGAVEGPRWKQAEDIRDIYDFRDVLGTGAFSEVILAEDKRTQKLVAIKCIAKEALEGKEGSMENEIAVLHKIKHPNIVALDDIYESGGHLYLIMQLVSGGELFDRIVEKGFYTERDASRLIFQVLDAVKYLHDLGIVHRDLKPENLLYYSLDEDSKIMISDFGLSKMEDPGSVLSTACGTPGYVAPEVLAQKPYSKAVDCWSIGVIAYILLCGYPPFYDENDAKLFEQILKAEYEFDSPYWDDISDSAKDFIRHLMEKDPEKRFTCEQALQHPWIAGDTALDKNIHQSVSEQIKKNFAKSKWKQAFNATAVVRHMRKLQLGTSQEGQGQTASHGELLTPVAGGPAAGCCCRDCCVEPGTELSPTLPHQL

[15] = molecular target: Fibroblast growth factor receptor 3 (Homo sapiens, UniProt P22607); type: functional
[16] = molecular target: T1, Mannose-6-phosphate isomerase (Homo sapiens, UniProt P34949); test: inhibitors of human PMI, primary screen, biochemical, fluorescence intensity, coupled assay (AID 1209)
T1 sequence (P34949 whole entry): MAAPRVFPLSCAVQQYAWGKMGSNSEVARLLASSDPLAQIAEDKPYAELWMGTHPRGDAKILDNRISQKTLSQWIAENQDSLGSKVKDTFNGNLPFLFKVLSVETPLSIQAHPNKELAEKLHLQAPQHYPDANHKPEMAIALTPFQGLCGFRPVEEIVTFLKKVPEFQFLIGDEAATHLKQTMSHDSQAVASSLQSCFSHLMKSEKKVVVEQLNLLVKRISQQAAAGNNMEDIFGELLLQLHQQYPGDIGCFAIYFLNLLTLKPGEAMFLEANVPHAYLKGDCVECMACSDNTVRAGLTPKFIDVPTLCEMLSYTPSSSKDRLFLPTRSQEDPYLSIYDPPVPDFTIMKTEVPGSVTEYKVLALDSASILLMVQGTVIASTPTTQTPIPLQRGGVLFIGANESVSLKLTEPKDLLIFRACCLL

Hexokinase = molecular target: T2, Hexokinase (Trypanosoma brucei, UniProt Q38C41); test: Confirmation assay for inhibitors of Trypanosoma brucei hexokinase 1-Analogue-first series. [Related pubchem assays (depositor defined):AID1430, AID1632, AID2516, AID2560, AID2579, AID2600, AID449725, AID492951]; type: functional
T2 sequence (Q38C41 whole entry): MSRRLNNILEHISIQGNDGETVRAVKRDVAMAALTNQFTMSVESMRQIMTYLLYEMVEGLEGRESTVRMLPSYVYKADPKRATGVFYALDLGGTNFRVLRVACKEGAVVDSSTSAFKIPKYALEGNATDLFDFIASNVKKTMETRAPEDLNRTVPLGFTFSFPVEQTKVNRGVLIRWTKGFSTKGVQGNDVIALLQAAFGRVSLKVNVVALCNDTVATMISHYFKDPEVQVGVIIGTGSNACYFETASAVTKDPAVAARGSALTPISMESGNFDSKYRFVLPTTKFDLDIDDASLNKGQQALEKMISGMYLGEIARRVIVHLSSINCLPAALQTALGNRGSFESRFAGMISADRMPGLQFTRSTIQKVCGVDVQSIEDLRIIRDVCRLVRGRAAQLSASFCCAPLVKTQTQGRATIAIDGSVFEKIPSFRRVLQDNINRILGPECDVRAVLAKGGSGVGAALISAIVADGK

[17] = molecular target: T3, Zinc finger protein mex-5 (Caenorhabditis elegans, UniProt Q9XUB2); test: MEX-5/TCR-2 RNA interaction inhibitors, dose response, biochemical, C. elegans, fluorescence polarization (AID 1960)
T3 sequence (Q9XUB2 whole entry): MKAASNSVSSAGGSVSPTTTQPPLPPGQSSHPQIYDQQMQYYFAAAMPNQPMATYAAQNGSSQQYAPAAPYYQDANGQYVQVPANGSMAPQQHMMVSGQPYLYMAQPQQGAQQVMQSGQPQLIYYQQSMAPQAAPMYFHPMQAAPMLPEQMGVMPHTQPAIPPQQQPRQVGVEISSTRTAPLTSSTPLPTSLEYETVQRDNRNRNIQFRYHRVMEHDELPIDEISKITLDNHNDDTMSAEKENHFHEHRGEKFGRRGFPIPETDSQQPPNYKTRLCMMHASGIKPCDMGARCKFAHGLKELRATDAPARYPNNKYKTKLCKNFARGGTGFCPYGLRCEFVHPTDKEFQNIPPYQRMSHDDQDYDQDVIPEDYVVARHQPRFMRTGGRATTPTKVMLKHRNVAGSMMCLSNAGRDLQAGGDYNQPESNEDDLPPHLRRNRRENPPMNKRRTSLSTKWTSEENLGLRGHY

[18] = molecular target: Bifunctional protein GlmU (Mycobacterium tuberculosis, UniProt P9WMN3); test: Inhibitors of Mycobacterial Glucosamine-1-phosphate acetyl transferase (GlmU). Secondary screen.; design: species or system Mycobacterium tuberculosis H37Rv
Chain of Bifunctional protein GlmU (P9WMN3 whole entry): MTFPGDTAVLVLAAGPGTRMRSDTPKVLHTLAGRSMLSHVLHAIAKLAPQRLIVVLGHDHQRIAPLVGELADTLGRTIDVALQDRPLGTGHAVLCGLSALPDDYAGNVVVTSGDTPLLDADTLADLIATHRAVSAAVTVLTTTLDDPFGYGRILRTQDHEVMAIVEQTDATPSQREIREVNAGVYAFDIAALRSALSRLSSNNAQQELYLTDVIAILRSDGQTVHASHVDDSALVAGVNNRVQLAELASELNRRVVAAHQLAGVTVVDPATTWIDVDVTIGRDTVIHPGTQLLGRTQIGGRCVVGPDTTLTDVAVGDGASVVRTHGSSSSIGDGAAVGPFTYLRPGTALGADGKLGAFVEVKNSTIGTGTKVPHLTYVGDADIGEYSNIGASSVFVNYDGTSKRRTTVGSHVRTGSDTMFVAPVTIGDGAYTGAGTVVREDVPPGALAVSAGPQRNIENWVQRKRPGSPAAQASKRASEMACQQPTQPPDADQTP

HeLa = test: HeLa cell cytotoxicity, dose response, cytotoxicity control, 24 h, cherry-picked samples (AID 504726); type: functional, cell-based; conditions: Homo sapiens;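 also: potency for cytotoxicity as loss of luminescence signal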
[19] = molecular target: Dual specificity tyrosine-phosphorylation-regulated kinase 1A (Rattus norvegicus, UniProt Q63470); type: biochemical, Homo sapiens
Cytochrome P450 3A4 = Cytochrome P450 3A4 (Homo sapiens, UniProt P08684);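 also: CYP3A4 tested as one member of a cytochrome P450 panel screen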
[20] = molecular target: Serine/threonine-protein phosphatase (Candida dubliniensis (strain CD36 / CBS 7987 / NCPF 3949 / NRRLY-17841) (Yeast), UniProt B9W6M3); test: calcineurin pathway inhibitors in yeast reporter, dose response, S. cerevisiae, CDRE-lacZ, luminescence, secondary (AID 2388); type: functional, cell-based;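 also: yeast reporter cells carrying a calcineurin-responsive lacZ construct stimulated with calcium chloride; luminescent beta-galactosidase reporter signal in whole cells rather than isolated phosphatase activity; potency for inhibition where a drop in reporter signal means calcineurin blockade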
Chain of Serine/threonine-protein phosphatase (B9W6M3 whole entry): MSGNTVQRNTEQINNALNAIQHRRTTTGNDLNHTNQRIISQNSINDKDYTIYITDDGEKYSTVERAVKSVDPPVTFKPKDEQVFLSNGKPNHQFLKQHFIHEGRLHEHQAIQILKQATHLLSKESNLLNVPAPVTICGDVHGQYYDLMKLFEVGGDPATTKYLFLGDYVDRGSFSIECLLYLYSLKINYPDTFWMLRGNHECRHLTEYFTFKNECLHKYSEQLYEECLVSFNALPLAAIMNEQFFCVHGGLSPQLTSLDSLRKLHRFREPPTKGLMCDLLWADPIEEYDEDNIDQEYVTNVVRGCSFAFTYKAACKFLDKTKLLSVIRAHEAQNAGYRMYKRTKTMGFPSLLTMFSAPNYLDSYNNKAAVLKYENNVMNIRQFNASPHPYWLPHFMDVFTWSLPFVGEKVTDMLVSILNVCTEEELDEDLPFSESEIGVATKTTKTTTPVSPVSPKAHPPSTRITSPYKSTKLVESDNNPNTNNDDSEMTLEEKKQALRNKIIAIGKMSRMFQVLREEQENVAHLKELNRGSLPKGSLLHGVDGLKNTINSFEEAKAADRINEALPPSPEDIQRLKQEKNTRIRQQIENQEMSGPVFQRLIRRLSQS

In the case of Cc1cccc(NC(=O)Nc2ccc3c(c2)CCc2sc4ncnc(N)c4c2-3)c1, the Ki [1] is reported as > 6.31 µM (inactive), the Ki [2] is reported as > 3.98 µM (inactive) and the Ki [3] is reported as > 1.58 µM (inactive). The Ki [4] was 3.98 µM (active), the Ki [5] was 2 µM (active) and the Ki [6] was 0.126 µM (active). The Ki [7] was 2 µM (active), the Ki [8] was > 3.16 µM (inactive) and the Ki [9] was > 7.94 µM (inactive). For the same molecule, the Ki [10] was 6.31 µM (active), the Ki [11] was > 7.94 µM (inactive) and the Ki (Aurora kinase B) was 0.0316 µM (active). For the same molecule, the Ki [12] was > 10 µM (inactive), the Ki [13] was > 7.94 µM (inactive) and the Ki [14] was > 6.31 µM (inactive). The Ki [15] was > 2 µM (inactive).

With Cc1ccc(-n2sc3ccccc3c2=O)cc1 the IC50 [16] was 6.78 µM (active) and the IC50 (Hexokinase) was 2.64 µM (active).

With N/C(=N\N=C/c1ccc(-c2ccc(O)c(C(=O)O)c2)o1)N[N+](=O)[O-] the EC50 [17] was 26.1 µM (active), the IC50 [18] was 28.4 µM (active) and the AC50 (HeLa) was 151 µM (active). The AC50 [19] was 1.13 µM (active).

CC(=O)N(/N=C1\Sc2ccccc2C1=O)c1ccccc1C was tested, and the AC50 (Cytochrome P450 3A4) was 31.6 µM (inconclusive).

CCCC(=O)NC(c1ccc(Cl)cc1)c1ccc2cccnc2c1O (centres undefined) was tested, and the EC50 [20] was 45.4 µM (active).

Reference: ChEMBL document CHEMBL1201862, “PubChem BioAssay data set” (2004)
